Paper PMC9898036, “VIP152 is a selective CDK9 inhibitor with pre-clinical in vitro and in vivo efficacy in chronic lymphocytic leukemia” (Leukemia, 2022)
Read-outs that look alike come from different tables or passages of the source.

Experiments:
Experiment in all cases: DiscoverX KINOMEscan kinase profiling (468 assays)
Type in all cases: binding
[1] = target: human kinome (Homo sapiens, UniProt Q9BVS4); conditions: kinase RIOK2 (Entrez RIOK2); compound concentration 1000 nM; read-out: Percent Control
How it was run: (§1)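 DNA-tagged kinases competed for immobilized biotinylated ligands on streptavidin magnetic beads, with bound kinase quantified by qPCR. VIP152 in DMSO was tested against a DMSO control.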

[2] = target: human kinome (Homo sapiens, UniProt Q13523); conditions: read-out: Percent Control
Chain of human kinome (Homo sapiens, UniProt Q13523) (Q13523 whole entry): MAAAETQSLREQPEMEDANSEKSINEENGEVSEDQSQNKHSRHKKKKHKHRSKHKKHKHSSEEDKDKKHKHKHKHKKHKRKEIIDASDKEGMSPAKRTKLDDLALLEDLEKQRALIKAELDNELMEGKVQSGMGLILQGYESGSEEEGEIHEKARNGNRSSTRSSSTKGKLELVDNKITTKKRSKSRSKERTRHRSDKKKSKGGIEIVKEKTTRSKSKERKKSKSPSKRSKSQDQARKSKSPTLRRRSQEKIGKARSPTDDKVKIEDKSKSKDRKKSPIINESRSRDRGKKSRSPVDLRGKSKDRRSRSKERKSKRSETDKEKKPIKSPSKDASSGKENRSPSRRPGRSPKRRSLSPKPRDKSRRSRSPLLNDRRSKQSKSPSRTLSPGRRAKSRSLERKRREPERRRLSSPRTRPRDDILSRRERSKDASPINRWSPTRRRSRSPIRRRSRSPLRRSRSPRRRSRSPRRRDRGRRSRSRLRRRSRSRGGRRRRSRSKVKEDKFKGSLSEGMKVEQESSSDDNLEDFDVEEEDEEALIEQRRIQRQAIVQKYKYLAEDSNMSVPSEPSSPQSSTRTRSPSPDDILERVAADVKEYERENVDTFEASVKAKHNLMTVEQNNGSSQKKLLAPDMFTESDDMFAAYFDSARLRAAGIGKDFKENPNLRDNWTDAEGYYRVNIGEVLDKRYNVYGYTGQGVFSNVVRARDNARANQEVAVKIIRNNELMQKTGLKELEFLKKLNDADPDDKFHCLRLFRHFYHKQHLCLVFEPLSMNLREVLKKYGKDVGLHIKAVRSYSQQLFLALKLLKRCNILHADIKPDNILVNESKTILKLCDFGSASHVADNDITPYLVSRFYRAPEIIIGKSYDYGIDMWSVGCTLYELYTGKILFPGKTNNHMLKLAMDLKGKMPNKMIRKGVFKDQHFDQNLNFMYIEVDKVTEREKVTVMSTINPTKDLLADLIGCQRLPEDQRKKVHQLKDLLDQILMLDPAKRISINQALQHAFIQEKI
How it was run: as §1

[3] = target: human kinome (Homo sapiens, UniProt Q9Y3S1); conditions: kinase WNK2 (Entrez WNK2); compound concentration 1000 nM; read-out: Percent Control
How it was run: as §1

[4] = target: human kinome (Homo sapiens, UniProt P57058); conditions: HUNK; 100 nM; read-out: Percent Control
How it was run: as §1

[5] = target: human kinome (Homo sapiens, UniProt Q13464); conditions: kinase ROCK1 (Entrez ROCK1); compound concentration 1000 nM; read-out: Percent Control
How it was run: as §1

[6] = target: human kinome (Homo sapiens, UniProt O15146); conditions: MUSK; 100 nM; read-out: Percent Control
How it was run: as §1

[7] = target: human kinome (Homo sapiens, UniProt P25098); conditions: GRK2 (Entrez ADRBK1); 100 nM; read-out: Percent Control
How it was run: as §1

[8] = target: human kinome (Homo sapiens, UniProt O75676); conditions: compound concentration 1000 nM, read-out: Percent Control
How it was run: as §1

[9] = target: human kinome (Homo sapiens, UniProt Q6P3R8); conditions: read-out: Percent Control
Chain of human kinome (Homo sapiens, UniProt Q6P3R8) (Q6P3R8 whole entry): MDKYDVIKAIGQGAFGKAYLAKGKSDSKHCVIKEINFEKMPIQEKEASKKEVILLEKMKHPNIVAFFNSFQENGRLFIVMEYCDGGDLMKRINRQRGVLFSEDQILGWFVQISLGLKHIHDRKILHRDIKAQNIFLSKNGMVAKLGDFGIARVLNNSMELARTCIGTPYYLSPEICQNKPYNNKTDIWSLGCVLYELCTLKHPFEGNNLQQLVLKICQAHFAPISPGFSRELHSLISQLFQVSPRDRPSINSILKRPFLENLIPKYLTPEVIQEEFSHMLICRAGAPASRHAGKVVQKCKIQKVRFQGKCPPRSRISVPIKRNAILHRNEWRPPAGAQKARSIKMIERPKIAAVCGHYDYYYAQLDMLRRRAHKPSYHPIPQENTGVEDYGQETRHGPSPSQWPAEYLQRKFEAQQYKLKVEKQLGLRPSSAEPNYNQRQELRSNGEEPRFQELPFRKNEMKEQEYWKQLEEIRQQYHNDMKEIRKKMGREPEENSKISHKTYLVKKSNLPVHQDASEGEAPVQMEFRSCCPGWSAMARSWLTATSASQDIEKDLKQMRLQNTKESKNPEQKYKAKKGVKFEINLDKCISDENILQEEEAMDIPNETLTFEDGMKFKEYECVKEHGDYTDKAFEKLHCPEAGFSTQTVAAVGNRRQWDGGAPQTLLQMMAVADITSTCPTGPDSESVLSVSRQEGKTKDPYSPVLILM
How it was run: as §1

[10] = target: human kinome (Homo sapiens, UniProt P07333); conditions: 100 nM, read-out: Percent Control
Chain of human kinome (Homo sapiens, UniProt P07333) (P07333 20-972): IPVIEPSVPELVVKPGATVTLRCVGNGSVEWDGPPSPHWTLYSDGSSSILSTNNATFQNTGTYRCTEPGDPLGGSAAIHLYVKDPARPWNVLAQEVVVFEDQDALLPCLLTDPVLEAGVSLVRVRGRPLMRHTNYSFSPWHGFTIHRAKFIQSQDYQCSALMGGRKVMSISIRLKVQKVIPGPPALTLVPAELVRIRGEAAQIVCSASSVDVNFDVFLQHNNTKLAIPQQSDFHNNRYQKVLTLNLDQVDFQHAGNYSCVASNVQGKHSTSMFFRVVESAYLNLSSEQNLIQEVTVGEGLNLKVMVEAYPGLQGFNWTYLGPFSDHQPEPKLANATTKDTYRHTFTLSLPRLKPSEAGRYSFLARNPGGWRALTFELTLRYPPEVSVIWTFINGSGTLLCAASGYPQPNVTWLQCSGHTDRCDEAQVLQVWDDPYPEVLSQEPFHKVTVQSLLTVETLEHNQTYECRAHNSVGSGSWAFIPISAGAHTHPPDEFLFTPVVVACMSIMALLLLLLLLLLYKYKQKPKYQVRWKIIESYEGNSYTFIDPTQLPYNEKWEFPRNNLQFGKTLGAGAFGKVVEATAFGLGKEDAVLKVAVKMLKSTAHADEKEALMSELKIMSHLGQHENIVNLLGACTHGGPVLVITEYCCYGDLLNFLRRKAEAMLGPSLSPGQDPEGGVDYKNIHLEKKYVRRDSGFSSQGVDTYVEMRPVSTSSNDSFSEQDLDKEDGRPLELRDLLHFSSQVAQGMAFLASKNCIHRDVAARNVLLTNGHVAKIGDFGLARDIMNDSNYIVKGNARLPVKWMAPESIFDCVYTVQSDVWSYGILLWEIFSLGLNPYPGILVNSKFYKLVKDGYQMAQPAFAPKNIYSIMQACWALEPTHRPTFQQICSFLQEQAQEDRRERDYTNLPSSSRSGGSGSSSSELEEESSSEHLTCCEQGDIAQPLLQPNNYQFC
How it was run: as §1

[11] = target: human kinome (Homo sapiens, UniProt Q13882); conditions: BRK (Entrez PTK6); 100 nM; read-out: Percent Control
How it was run: as §1

[12] = target: human kinome (Homo sapiens, UniProt P11362); conditions: FGFR1; 100 nM; read-out: Percent Control
How it was run: as §1

[13] = target: human kinome (Homo sapiens, UniProt P42336, M1043I); conditions: read-out: Percent Control
Chain of human kinome (Homo sapiens, UniProt P42336, M1043I) (P42336 whole entry M1043I): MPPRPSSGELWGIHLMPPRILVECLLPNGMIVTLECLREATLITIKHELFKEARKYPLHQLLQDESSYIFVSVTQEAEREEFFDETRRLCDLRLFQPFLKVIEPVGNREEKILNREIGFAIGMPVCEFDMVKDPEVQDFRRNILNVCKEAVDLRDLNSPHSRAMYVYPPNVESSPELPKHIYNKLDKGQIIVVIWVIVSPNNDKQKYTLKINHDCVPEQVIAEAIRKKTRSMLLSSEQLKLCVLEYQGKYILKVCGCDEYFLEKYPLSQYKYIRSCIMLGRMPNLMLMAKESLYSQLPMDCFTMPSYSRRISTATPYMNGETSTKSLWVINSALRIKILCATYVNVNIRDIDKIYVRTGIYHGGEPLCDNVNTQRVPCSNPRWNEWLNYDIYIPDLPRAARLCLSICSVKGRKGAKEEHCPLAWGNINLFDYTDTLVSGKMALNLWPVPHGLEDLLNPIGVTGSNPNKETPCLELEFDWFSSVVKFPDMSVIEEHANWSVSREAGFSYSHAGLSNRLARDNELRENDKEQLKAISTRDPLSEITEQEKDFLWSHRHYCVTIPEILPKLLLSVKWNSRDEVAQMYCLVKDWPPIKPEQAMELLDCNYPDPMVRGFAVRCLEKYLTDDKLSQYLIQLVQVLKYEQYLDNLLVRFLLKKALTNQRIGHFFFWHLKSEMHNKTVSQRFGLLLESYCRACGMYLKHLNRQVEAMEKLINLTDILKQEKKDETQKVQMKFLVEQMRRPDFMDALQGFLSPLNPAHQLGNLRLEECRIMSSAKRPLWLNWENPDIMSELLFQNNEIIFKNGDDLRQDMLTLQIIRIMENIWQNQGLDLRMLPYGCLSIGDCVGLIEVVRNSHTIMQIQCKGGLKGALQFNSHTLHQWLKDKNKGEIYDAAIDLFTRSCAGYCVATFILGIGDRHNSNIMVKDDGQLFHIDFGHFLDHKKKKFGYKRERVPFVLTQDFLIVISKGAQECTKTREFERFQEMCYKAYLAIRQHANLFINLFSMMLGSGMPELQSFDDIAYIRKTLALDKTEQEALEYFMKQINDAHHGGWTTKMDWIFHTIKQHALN
How it was run: as §1

[14] = target: human kinome (Homo sapiens, UniProt Q15569); conditions: kinase TESK1 (Entrez TESK1); compound concentration 1000 nM; read-out: Percent Control
How it was run: as §1

[15] = target: human kinome (Homo sapiens, UniProt P49674); conditions: CSNK1E; 100 nM; read-out: Percent Control
Chain of human kinome (Homo sapiens, UniProt P49674) (P49674 whole entry): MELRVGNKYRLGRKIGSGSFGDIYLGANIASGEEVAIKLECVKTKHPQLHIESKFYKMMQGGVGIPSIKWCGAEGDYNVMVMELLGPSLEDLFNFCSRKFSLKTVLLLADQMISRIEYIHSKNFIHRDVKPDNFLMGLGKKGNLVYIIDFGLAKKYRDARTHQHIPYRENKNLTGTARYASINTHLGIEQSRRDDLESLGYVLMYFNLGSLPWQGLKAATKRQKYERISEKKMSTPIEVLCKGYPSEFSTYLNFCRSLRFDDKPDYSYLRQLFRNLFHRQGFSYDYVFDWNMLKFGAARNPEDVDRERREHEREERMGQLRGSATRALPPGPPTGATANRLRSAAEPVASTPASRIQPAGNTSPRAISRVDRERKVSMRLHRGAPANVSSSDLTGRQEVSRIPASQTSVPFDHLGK
How it was run: as §1

[16] = target: human kinome (Homo sapiens, UniProt Q9Y5S2); conditions: MRCKB (Entrez CDC42BPB); 100 nM; read-out: Percent Control
How it was run: as §1

[17] = target: human kinome (Homo sapiens, UniProt P07947); conditions: kinase YES (Entrez YES1); compound concentration 1000 nM; read-out: Percent Control
How it was run: as §1

[18] = target: human kinome (Homo sapiens, UniProt Q86Z02); conditions: HIPK1; 100 nM; read-out: Percent Control
How it was run: as §1

[19] = target: human kinome (Homo sapiens, UniProt Q9UM73); conditions: ALK; 100 nM; read-out: Percent Control
How it was run: as §1

[20] = target: human kinome (Homo sapiens, UniProt P57059); conditions: kinase SIK (Entrez SIK1); compound concentration 1000 nM; read-out: Percent Control
How it was run: as §1

[21] = target: human kinome (Homo sapiens, UniProt P51813); conditions: BMX; 100 nM; read-out: Percent Control
How it was run: as §1

[22] = target: human kinome (Homo sapiens, UniProt P08581); conditions: MET; 100 nM; read-out: Percent Control
How it was run: as §1

[23] = target: human kinome (Homo sapiens, UniProt O43318); conditions: kinase TAK1 (Entrez MAP3K7); compound concentration 1000 nM; read-out: Percent Control
How it was run: as §1

[24] = target: human kinome (Homo sapiens, UniProt P32298); conditions: GRK4; 100 nM; read-out: Percent Control
How it was run: as §1

[25] = target: human kinome (Homo sapiens, UniProt P37023); conditions: ACVRL1; 100 nM; read-out: Percent Control
How it was run: as §1

[26] = target: human kinome (Homo sapiens, UniProt Q14004); conditions: read-out: Percent Control
How it was run: as §1

[27] = target: human kinome (Homo sapiens, UniProt P49336); conditions: CDK8; 100 nM; read-out: Percent Control
How it was run: as §1

[28] = target: human kinome (Homo sapiens, UniProt P10721); conditions: 100 nM, read-out: Percent Control
Chain of human kinome (Homo sapiens, UniProt P10721) (P10721 26-976): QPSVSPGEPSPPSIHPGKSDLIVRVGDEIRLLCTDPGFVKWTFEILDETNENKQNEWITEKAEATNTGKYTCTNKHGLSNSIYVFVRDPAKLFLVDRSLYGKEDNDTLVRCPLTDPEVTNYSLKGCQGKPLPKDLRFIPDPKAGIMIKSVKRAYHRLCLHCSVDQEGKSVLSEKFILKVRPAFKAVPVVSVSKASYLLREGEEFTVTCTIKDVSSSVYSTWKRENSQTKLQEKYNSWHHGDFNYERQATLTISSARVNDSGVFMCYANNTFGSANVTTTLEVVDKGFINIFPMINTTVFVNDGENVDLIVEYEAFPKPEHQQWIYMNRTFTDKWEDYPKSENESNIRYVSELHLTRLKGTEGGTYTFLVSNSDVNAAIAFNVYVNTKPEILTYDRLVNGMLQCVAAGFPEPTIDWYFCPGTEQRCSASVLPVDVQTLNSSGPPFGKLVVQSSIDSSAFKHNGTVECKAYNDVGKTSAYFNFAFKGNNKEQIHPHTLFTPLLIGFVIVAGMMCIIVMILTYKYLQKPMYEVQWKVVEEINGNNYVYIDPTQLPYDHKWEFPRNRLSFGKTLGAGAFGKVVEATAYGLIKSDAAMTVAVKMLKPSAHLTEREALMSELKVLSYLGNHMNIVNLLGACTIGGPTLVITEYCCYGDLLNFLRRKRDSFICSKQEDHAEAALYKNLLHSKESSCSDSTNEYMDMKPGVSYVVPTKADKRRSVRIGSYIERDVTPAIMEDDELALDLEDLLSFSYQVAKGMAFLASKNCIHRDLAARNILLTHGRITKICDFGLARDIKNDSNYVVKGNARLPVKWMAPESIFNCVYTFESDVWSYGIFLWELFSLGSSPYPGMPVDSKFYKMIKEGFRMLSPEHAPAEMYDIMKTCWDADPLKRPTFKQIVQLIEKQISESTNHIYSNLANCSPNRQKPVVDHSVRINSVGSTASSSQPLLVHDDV
How it was run: as §1

[29] = target: human kinome (Homo sapiens, UniProt Q12851); conditions: MAP4K2; 100 nM; read-out: Percent Control
How it was run: as §1

[30] = target: human kinome (Homo sapiens, UniProt P09769); conditions: FGR; 100 nM; read-out: Percent Control
How it was run: as §1

COc1cc(F)ccc1-c1cc(Nc2cc(CS(C)(=N)=O)ccn2)ncc1F (stereo not drawn) [VIP152]
remaining binding at 1 µM [1]: 77% | remaining binding at 0.1 µM ([2]; PRP4 (Entrez PRPF4B), 100 nM): 87% | remaining binding at 1 µM ([2]; kinase PRP4 (Entrez PRPF4B), compound concentration 1000 nM): 71% | remaining binding at 1 µM [3]: 85% | remaining binding at 0.1 µM [4]: 88% | remaining binding at 1 µM [5]: 57% | remaining binding at 0.1 µM [6]: 99% | remaining binding at 0.1 µM [7]: 100% | remaining binding at 1 µM ([8]; kinase RPS6KA4(Kin.Dom.1-N-terminal) (Entrez RPS6KA4)): 85% | remaining binding at 1 µM ([8]; kinase RPS6KA4(Kin.Dom.2-C-terminal) (Entrez RPS6KA4)): 71% | remaining binding at 0.1 µM ([9]; NEK5, 100 nM): 100% | remaining binding at 1 µM ([9]; kinase NEK5 (Entrez NEK5), compound concentration 1000 nM): 92% | remaining binding at 0.1 µM ([10]; CSF1R-autoinhibited): 95% | remaining binding at 0.1 µM ([10]; CSF1R): 100% | remaining binding at 0.1 µM [11]: 100% | remaining binding at 0.1 µM [12]: 100% | remaining binding at 0.1 µM ([13]; PIK3CA(M1043I), 100 nM): 100% | remaining binding at 1 µM ([13]; kinase PIK3CA(M1043I) (Entrez PIK3CA), compound concentration 1000 nM): 84% | remaining binding at 1 µM [14]: 92% | remaining binding at 0.1 µM [15]: 95% | remaining binding at 0.1 µM [16]: 100% | remaining binding at 1 µM [17]: 86% | remaining binding at 0.1 µM [18]: 63% | remaining binding at 0.1 µM [19]: 100% | remaining binding at 1 µM [20]: 88% | remaining binding at 0.1 µM [21]: 100% | remaining binding at 0.1 µM [22]: 57% | remaining binding at 1 µM [23]: 65% | remaining binding at 0.1 µM [24]: 88% | remaining binding at 0.1 µM [25]: 77% | remaining binding at 0.1 µM [26]: 66% | remaining binding at 0.1 µM [27]: 100% | remaining binding at 0.1 µM ([28]; KIT-autoinhibited): 98% | remaining binding at 0.1 µM ([28]; KIT): 100% | remaining binding at 0.1 µM [29]: 80% | remaining binding at 0.1 µM [30]: 100%
